In ChEMBL document CHEMBL1151292, “Antineoplastic activity and cytotoxicity of flavones, isoflavones, and flavanones” (1979):
In brackets after ≈: the same amount, converted by molar mass. Activity calls are given as the source filed them.

What was measured:
[1] = test system: L1210; assay: In vivo antitumor activity against mouse L1210 cells; format: functional, organism-based
[2] = test system: KB; assay: Cytotoxicity against human KB cells; format: functional; conditions: read-out: ED50 (the source's name)
[3] = test system: P1798; assay: In vivo antitumor activity against mouse P1798 cells; format: functional, organism-based
[4] = test system: Rattus norvegicus; assay: In vivo antitumor activity against rat dunning leukemia cells; format: functional, organism-based
[5] = test system: CA-755; assay: In vivo antitumor activity against mouse CA-755 cells; format: functional, organism-based
[6] = test system: CCRF S-180; assay: In vivo antitumor activity against mouse S180 cells; format: functional, organism-based
[7] = test system: FV; assay: In vivo antitumor activity against mouse FV cells; format: functional, organism-based
[8] = test system: PX; assay: In vivo antitumor activity against hamster PX cells; format: functional, organism-based; conditions: Cricetinae
[9] = test system: P1; assay: In vivo antitumor activity against hamster P1 cells; format: functional, organism-based; conditions: Cricetinae
[10] = test system: Lewis lung carcinoma cell line; assay: In vivo antitumor activity against mouse LLC cells; format: functional, organism-based
[11] = test system: P388; assay: In vivo antitumor activity against mouse P388 cells; format: functional, organism-based
[12] = test system: Walker 256; assay: In vivo antitumor activity against rat Walker 256 cells; format: functional, organism-based
[13] = test system: B16; assay: In vivo antitumor activity against mouse B16 carcinoma cells; format: functional, organism-based

Row | Compound | Activity [1] | EC50 [2] | Activity [6] | Activity [7] | Activity [11] | also measured
1 | COc1cc(O)c2c(=O)cc(-c3ccccc3)oc2c1 [TECHTOCHRYSIN] | inactive | 49 µg/mL (≈ 183 µM) |  |  |  | Activity [3]: inactive; Activity [4]: inactive
2 | O=C1CC(c2ccccc2)Oc2ccccc21 (stereo unspecified) | inactive |  | inactive | inactive |  | Activity [5]: inactive
3 | Nc1c(-c2ccccc2)oc2ccc(Cl)cc2c1=O | inactive | > 100 µg/mL | inactive | inactive |  | 
4 | COc1ccc(-c2cc(=O)c3c(OC)c(OC)c(OC)c(OC)c3o2)cc1 [TANGERETIN] | inactive | 15 µg/mL (≈ 40.3 µM) | inactive |  |  | Activity [8]: Active; Activity [5]: inactive; Activity [9]: inactive
5 | COc1cc(OC)cc(-c2cc(=O)c3c(OC)c(OC)c(OC)c(OC)c3o2)c1 |  | 3 µg/mL (≈ 7.46 µM) | inactive | Active |  | Activity [10]: inactive
6 | COc1ccc(-c2oc3cc(O)c(OC)c(O)c3c(=O)c2OC)cc1O [CENTAUREIDIN] |  | 0.4 µg/mL (≈ 1.11 µM) |  |  | inactive | 
7 | COc1ccc(-c2cc(=O)c3c(O)cc(O)cc3o2)cc1 [ACACETIN] | inactive | > 100 µg/mL | inactive |  | inactive | Activity [5]: inactive
8 | O=C1c2cc(O)c(O)cc2OC(c2ccc(O)c(O)c2)C1O (stereo unspecified) | inactive |  | inactive |  | inactive | 
9 | COc1cccc(OC)c1-c1oc2ccccc2c(=O)c1O | inactive | 1 µg/mL (≈ 3.35 µM) | inactive | inactive | inactive | 
10 | COc1ccc2c(=O)c(C)c(-c3ccccc3)oc2c1 | inactive | 43 µg/mL (≈ 161 µM) | inactive | Active |  | 
11 | O=c1cc(-c2ccc(O)cc2)oc2cc(O)cc(O)c12 [APIGENIN] | inactive | 7.4 µg/mL (≈ 27.4 µM) |  |  |  | Activity [3]: inactive; Activity [4]: inactive
12 | COc1ccc(-c2cc(=O)c3cc(OC)c(OC)c(OC)c3o2)cc1 |  | 5 µg/mL (≈ 14.6 µM) | inactive | inactive |  | Activity [12]: inactive; Activity [10]: inactive
13 | O=c1c(O)c(-c2ccc(O)cc2O)oc2cc(O)cc(O)c12 | inactive |  | inactive |  | inactive | Activity [5]: inactive
14 | O=c1c(O)c(-c2cc(O)c(O)c(O)c2)oc2cc(O)cc(O)c12 [MYRICETIN] | inactive | 15 µg/mL (≈ 47.1 µM) |  |  |  | Activity [13]: inactive
15 | COc1ccc(-c2cc(=O)c3c(O)c(OC)c(O)cc3o2)cc1 [PECTOLINARIGENIN] | inactive | 3 µg/mL (≈ 9.55 µM) | inactive |  | inactive | Activity [12]: inactive
16 | O=c1c(O)c(-c2ccccc2)oc2ccccc12 [FLAVONOL] | inactive | 0.2 µg/mL (≈ 0.839 µM) | inactive |  | inactive | Activity [10]: inactive; Activity [5]: inactive; Activity [13]: inactive
17 | COc1ccc(-c2cc(=O)c3c(O)cc(OC)cc3o2)cc1 [APIGENIN DIMETHYLETHER] | inactive | 45 µg/mL (≈ 151 µM) | inactive |  | inactive | Activity [10]: inactive
18 | O=c1c(O[C@@H]2O[C@H](CO)[C@@H](O)[C@H](O)[C@H]2O)c(-c2ccc(O)c(O)c2)oc2cc(O)cc(O)c12 [ISOQUERCETIN] | inactive | > 100 µg/mL | inactive |  | inactive | Activity [12]: inactive; Activity [5]: inactive
19 | COc1ccc(-c2oc3cc(O)cc(O)c3c(=O)c2OC)cc1O |  | 2 µg/mL (≈ 6.06 µM) |  |  | inactive | 
20 | COc1cc(OC)c(-c2oc3ccccc3c(=O)c2O)cc1OC | inactive | 5 µg/mL (≈ 15.2 µM) | inactive | inactive |  | 
21 | O=c1c(O)c(-c2ccc(O)c(O)c2)oc2cc(O)ccc12 [FISETIN] | inactive | > 100 µg/mL | inactive |  | inactive | Activity [10]: inactive
22 | COc1cc2c(=O)cc(-c3ccc(O)cc3)oc2c(OC)c1OC |  | 0.7 µg/mL (≈ 2.13 µM) | inactive | Active |  | Activity [12]: Active; Activity [10]: inactive
23 | Cc1ccc2oc(-c3ccccc3)c(O)c(=O)c2c1 | inactive | 2 µg/mL (≈ 7.93 µM) | inactive |  | inactive | Activity [13]: inactive
